{
  "source": "paper PMC11747885",
  "about": "“Potent inhibitors of the human RNA ligase Rlig1 highlights its role in RNA integrity maintenance under oxidative cellular stress” (Chemical Science, 2025)",
  "key": {"[1]": {"biological_target": "T1, Rlig1-AMP (Homo sapiens, UniProt Q8N999)", "T1 construct": "made in house; host or cells: E. coli BL21 (DE3), pET15b-Rlig1", "T1 sequence (Q8N999 whole entry)": "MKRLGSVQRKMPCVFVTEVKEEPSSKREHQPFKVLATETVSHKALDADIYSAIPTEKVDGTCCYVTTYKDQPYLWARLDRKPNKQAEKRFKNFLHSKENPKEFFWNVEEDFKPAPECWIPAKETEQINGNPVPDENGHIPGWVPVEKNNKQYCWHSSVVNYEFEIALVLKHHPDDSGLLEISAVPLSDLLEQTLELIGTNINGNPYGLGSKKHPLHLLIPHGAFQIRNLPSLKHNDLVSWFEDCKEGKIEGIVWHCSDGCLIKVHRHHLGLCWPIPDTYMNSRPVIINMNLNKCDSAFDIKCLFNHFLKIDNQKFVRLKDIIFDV", "experiment": "Radioactive RNA ligation assay (hit validation, 10 µM test and IC50 determination)", "type": "biochemical", "conditions": "for Product formation [%] of RNA ligation, Rlig1: three replicates"}, "[2]": {"experiment": "Cell viability assay of HEK293 cells treated with inhibitors and menadione", "type": "cell-based, human", "conditions": "human, HEK293 cells, w/o Menadione; for viability at 7.5 µM: 7.5 µM compound; for viability at 15 µM: 15 µM compound; for viability at 30 µM: 30 µM compound; for viability at 60 µM: 60 µM compound"}, "[3]": {"tested_on": "HEK293 cells", "experiment": "Cell viability assay of HEK293 cells treated with inhibitors and menadione", "type": "cell-based, human", "conditions": "for Mean Diff, (Predicted (LS) mean diff,) w/o menadione - w menadione: 2 way ANOVA, Šídák's multiple comparisons test, normalised viability"}, "[4]": {"conditions": "log(inhibitor) vs. response, variable slope (four parameters)"}, "[5]": {"conditions": "20240508 plate 012, DMSO Ko no Mendione = 100"}, "[6]": {"conditions": "20240508 plate 013, DMSO Ko no Mendione = 100"}, "[7]": {"conditions": "20240515 plate 014, DMSO Ko no Mendione = 100"}, "[8]": {"conditions": "20240515 plate 015, DMSO Ko no Mendione = 100"}},
  "note": "Several values for one entry are separate records, joined by “and”; a condition that tells them apart may be missing. Identical values can stand only once. Entries after “also recorded” stand apart in the source; their conditions may differ. Like-named read-outs stand apart in the source and are kept apart here.",
  "data": [
    {"smiles": "Nc1nccc(Nc2ccc(NC(=O)c3ccc(Nc4ncnc5ccccc45)cc3)cc2)n1", "note": "[Compound 47]", "values": [
      {"measurement": "inhibition of Rlig1-AMP ligation (urea-PAGE)", "setting": "[1]; 10 μM compound, 500 nM Rlig1-AMP, 20 min 37 °C", "value": "Ligation was inhibited; also recorded: inhibited Rlig1-AMP"},
      {"measurement": "Bottom (best-fit value), Rlig1", "setting": "[1]; Figure 5B, Sigmoidal, 4PL", "value": 1.324},
      {"measurement": "HillSlope (best-fit value), Rlig1", "setting": "[1]; Figure 5B, Sigmoidal, 4PL", "value": -6.786},
      {"measurement": "Span (best-fit value), Rlig1", "setting": "[1]; Figure 5B, Sigmoidal, 4PL", "value": 68.62},
      {"measurement": "Top (best-fit value), Rlig1", "setting": "[1]; Figure 5B, Sigmoidal, 4PL, X is log(concentration)", "value": 69.95},
      {"measurement": "LogIC50 (best-fit value), Rlig1", "setting": "[1]; Figure 5B, Sigmoidal, 4PL, log of µM", "value": 0.6576},
      {"measurement": "IC50", "setting": "[1]; Figure 5B, Sigmoidal, 4PL, read-out: IC50 (best-fit value), Rlig1", "value": 4.55, "unit": "µM"},
      {"measurement": "HillSlope (best-fit value)", "setting": "[1]; four-parameter fit", "value": 6.82},
      {"measurement": "Span (best-fit value)", "setting": "[1]; four-parameter fit", "value": 92.85},
      {"measurement": "IC50", "setting": "[1]; four-parameter fit, n = 3, read-out: IC50 (best-fit value)", "value": 4.54, "unit": "µM"},
      {"measurement": "Product formation [%] of RNA ligation, Rlig1", "setting": "[1]; log (47 [µM]) 0.273001", "value": "3.068% and 1.075% and 8.355%"},
      {"measurement": "Product formation [%] of RNA ligation, Rlig1", "setting": "[1]; log (47 [µM]) 0.574031", "value": "27.5278% and 13.8043% and 34.7122%"},
      {"measurement": "Product formation [%] of RNA ligation, Rlig1", "setting": "[1]; log (47 [µM]) 0.875061", "value": "98.3243% and 92.1834% and 95.246%"},
      {"measurement": "Product formation [%] of RNA ligation, Rlig1", "setting": "[1]; log (47 [µM]) 1.17609", "value": "100% and 96.1318% and 97.0084%"},
      {"measurement": "Product formation [%] of RNA ligation, Rlig1", "setting": "[1]; log (47 [µM]) 1.47712", "value": "100% and 98.2475% and 98.511%"},
      {"measurement": "Product formation [%] of RNA ligation, Rlig1", "setting": "[1]; log (47 [µM]) -0.0280287", "value": "6.829% and 0.6969% and 9.287%"},
      {"measurement": "Product formation [%] of RNA ligation, Rlig1", "setting": "[1]; log (47 [µM]) -0.329059", "value": "4.933% and 0% and 8.486%"},
      {"measurement": "Product formation [%] of RNA ligation, Rlig1", "setting": "[1]; log (47 [µM]) -0.630089", "value": "7.315% and 6.312% and 9.428%"},
      {"measurement": "inhibition at 30 µM", "setting": "[1]; log Compound [µM] 1.47712, replicates I-III, read-out: percentage inhibition (dose response curve for IC50)", "value": 100, "unit": "%"},
      {"measurement": "inhibition at 0.234375 µM", "setting": "[1]; log Compound [µM] -0.630089, replicates I-III, read-out: percentage inhibition (dose response curve for IC50)", "value": 7.32, "unit": "%"},
      {"measurement": "LogIC50 (best-fit value)", "setting": "[1]; log of µM, four-parameter fit", "value": 0.6569},
      {"measurement": "Bottom (best-fit value)", "setting": "[1]; [4]", "value": 5.434},
      {"measurement": "Top (best-fit value)", "setting": "[1]; [4]", "value": 98.28},
      {"measurement": "IC50", "setting": "[1]; radioactive ligation assay, 500 nM Rlig1-AMP, 20 min 37 °C, n = 3, read-out: IC50", "value": 4.54, "unit": "µM"},
      {"measurement": "viability at 7.5 µM", "setting": "[2]; [5]", "value": 101, "unit": "%"},
      {"measurement": "viability at 7.5 µM", "setting": "[2]; [6]", "value": 97.7, "unit": "%"},
      {"measurement": "viability at 7.5 µM", "setting": "[2]; [7]", "value": 86.8, "unit": "%"},
      {"measurement": "viability at 7.5 µM", "setting": "[2]; [8]", "value": 90.7, "unit": "%"},
      {"measurement": "viability at 15 µM", "setting": "[2]; [5]", "value": 99.1, "unit": "%"},
      {"measurement": "viability at 15 µM", "setting": "[2]; [6]", "value": 99.5, "unit": "%"},
      {"measurement": "viability at 15 µM", "setting": "[2]; [7]", "value": 88.1, "unit": "%"},
      {"measurement": "viability at 15 µM", "setting": "[2]; [8]", "value": 86.8, "unit": "%"},
      {"measurement": "viability at 30 µM", "setting": "[2]; [5]", "value": 83.9, "unit": "%"},
      {"measurement": "viability at 30 µM", "setting": "[2]; [6]", "value": 85.9, "unit": "%"},
      {"measurement": "viability at 30 µM", "setting": "[2]; [7]", "value": 80.3, "unit": "%"},
      {"measurement": "viability at 30 µM", "setting": "[2]; [8]", "value": 77.7, "unit": "%"},
      {"measurement": "viability at 60 µM", "setting": "[2]; [5]", "value": 74.2, "unit": "%"},
      {"measurement": "viability at 60 µM", "setting": "[2]; [6]", "value": 78.2, "unit": "%"},
      {"measurement": "viability at 60 µM", "setting": "[2]; [7]", "value": 71.3, "unit": "%"},
      {"measurement": "viability at 60 µM", "setting": "[2]; [8]", "value": 70.9, "unit": "%"},
      {"measurement": "Mean Diff, (Predicted (LS) mean diff,) w/o menadione - w menadione", "setting": "[3]; 7.5 µM compound", "value": 27.05},
      {"measurement": "Cell viability raw signal, technical replicates", "setting": "[3]; 7.5 µM compound, w Menadione (40µM), 20240508 plate 012", "value": "13447 and 15406 and 23888 and 24895"},
      {"measurement": "Cell viability raw signal, technical replicates", "setting": "[3]; 7.5 µM compound, w Menadione (40µM), 20240508 plate 013", "value": "16840 and 14275 and 23542 and 21544"},
      {"measurement": "Cell viability raw signal, technical replicates", "setting": "[3]; 7.5 µM compound, w Menadione (40µM), 20240515 plate 014", "value": "21755 and 24259 and 24363 and 21863"},
      {"measurement": "Cell viability raw signal, technical replicates", "setting": "[3]; 7.5 µM compound, w Menadione (40µM), 20240515 plate 015", "value": "23813 and 26835 and 27301 and 27718"},
      {"measurement": "Cell viability raw signal, technical replicates", "setting": "[3]; 7.5 µM compound, w/o Menadione, 20240508 plate 012", "value": "495890 and 394280 and 400970 and 404470"},
      {"measurement": "Cell viability raw signal, technical replicates", "setting": "[3]; 7.5 µM compound, w/o Menadione, 20240508 plate 013", "value": "392490 and 381070 and 376820 and 393330"},
      {"measurement": "Cell viability raw signal, technical replicates", "setting": "[3]; 7.5 µM compound, w/o Menadione, 20240515 plate 014", "value": "358610 and 355380 and 351680 and 351260"},
      {"measurement": "Cell viability raw signal, technical replicates", "setting": "[3]; 7.5 µM compound, w/o Menadione, 20240515 plate 015", "value": "363930 and 358300 and 404440 and 357100"},
      {"measurement": "Mean Diff, (Predicted (LS) mean diff,) w/o menadione - w menadione", "setting": "[3]; 15 µM compound", "value": 26.73}
    ]}
  ]
}
